Measurements as given in US20230113037A1 (Bayer Aktiengesellschaft, priority 2019, published 2023).
Several values for one entry are separate records, joined by “and”; a condition that tells them apart may be missing. Equal entries are not always repeated. Where two headings read alike, the source gives them in different places.

Experiments:
AHR [1] = molecular target: T1, AHR (Mus musculus, UniProt P30561); test: In vitro assay 3: antagonism in mouse cell line (AHR transactivation, firefly luciferase reporter, kynurenic acid prestimulated); type: cell-based
T1 sequence (P30561 1-848 P471L/N533S/M589L): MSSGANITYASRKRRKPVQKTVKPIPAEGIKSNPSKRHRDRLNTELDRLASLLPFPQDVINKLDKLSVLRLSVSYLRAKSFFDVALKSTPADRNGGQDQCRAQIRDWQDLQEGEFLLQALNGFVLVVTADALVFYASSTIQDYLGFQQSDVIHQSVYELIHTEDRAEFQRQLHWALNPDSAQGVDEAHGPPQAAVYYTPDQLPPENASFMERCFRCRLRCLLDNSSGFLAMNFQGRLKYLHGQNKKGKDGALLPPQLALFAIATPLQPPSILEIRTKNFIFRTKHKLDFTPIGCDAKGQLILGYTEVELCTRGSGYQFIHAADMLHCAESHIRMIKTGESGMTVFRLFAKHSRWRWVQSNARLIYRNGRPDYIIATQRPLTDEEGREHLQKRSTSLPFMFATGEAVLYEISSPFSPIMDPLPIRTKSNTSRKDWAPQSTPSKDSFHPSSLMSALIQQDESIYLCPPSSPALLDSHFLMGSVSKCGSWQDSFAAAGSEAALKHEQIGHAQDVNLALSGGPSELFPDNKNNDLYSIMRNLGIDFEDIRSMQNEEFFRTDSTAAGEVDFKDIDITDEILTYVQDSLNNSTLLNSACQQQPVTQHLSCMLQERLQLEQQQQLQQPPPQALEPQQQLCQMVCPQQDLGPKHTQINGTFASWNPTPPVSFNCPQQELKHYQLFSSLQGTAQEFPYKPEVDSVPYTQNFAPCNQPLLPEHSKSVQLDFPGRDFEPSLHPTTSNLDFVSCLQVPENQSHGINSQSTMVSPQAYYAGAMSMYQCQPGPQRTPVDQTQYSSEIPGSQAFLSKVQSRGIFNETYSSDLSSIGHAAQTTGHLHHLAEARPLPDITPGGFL
Outline: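 Kynurenic acid-prestimulated mouse reporter cells; stable AHR-inducible firefly luc construct with DRE sites in promoter. No-agonist wells = positive inhibition ctrl. Luminescence normalized to pos/neg ctrls; n>1 reported as mean or median.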

AHR [2] = molecular target: T2, AHR (Homo sapiens, UniProt P35869); test: In vitro assay 1: antagonism in human cell line (AHR transactivation, firefly luciferase reporter, kynurenic acid prestimulated); type: cell-based; conditions: AHR Antagonism Human IC50 [M]
T2 construct: U87 MG glioblastoma cells (ATCC #HTB-14) endogenously expressing AHR; endogenous in cells; host or cells: U87 MG glioblastoma cells (ATCC #HTB-14)
T2 sequence (P35869 11-848): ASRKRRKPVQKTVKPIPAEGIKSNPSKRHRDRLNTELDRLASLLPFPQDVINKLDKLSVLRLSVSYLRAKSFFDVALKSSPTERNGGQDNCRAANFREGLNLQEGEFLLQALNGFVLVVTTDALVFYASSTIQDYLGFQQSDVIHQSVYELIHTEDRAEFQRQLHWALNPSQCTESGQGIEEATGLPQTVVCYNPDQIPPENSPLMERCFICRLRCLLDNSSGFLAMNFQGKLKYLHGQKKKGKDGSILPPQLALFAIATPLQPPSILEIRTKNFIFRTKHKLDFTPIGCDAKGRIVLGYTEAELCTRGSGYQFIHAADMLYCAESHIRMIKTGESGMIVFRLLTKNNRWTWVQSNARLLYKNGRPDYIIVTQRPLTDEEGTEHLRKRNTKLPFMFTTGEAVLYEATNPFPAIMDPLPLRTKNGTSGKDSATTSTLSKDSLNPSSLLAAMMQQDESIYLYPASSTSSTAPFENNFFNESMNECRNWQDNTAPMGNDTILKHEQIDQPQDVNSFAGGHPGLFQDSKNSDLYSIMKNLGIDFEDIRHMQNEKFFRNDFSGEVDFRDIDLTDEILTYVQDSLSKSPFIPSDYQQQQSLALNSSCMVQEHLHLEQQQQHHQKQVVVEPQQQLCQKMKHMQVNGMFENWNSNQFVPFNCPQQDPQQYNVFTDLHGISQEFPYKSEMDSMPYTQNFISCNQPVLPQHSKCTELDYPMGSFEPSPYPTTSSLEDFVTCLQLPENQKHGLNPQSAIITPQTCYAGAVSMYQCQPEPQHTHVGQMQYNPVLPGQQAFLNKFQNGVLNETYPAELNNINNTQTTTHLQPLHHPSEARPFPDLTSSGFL
Outline: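 Antagonism measured as loss of kynurenic acid-driven firefly luciferase from DRE reporter in stably transfected U87 MG cells; constitutive Renilla signal monitors cytotoxicity. Positive/negative control normalization, staurosporine 5 μM with 150 μM kynurenic acid as inhibition control; replicates given as mean or median.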

[3] = mouse Hepa 1c1c7 cells, 200 μM kynurenic acid, 20 hours, read-out: AHR Antagonism Mouse IC50
[4] = read-out: AHR Antagonism Mouse IC50, mouse Hepa 1c1c7 cells, 200 μM kynurenic acid, 20 hours
[5] = Hepa 1c1c7 cells, 200 μM kynurenic acid, 20 hours, firefly luciferase reporter, read-out: AHR Antagonism Mouse IC50

SMILES | IC50 (AHR [1]; [3]) | IC50 (AHR [2]) | further results
COc1ccc(-c2nc3c4cccc(Br)c4nc(N[C@@H]4CNCCNC4=O)n3n2)cc1 [Example 270, (6R)-6-{[7-bromo-2-(4-methoxyphenyl)[1,2,4]triazolo[1,5-c]quinazolin-5-yl]amino}-1,4-diazepan-5-one] | 0.946 nM | 7.93e-10 M | –
COc1cccc(-c2nc3c4ccccc4nc(NC4CCCNC4=O)n3n2)c1 (single isomer, unassigned) [Example 119, 3-{[2-(3-methoxyphenyl)[1,2,4]triazolo[1,5-c]quinazolin-5-yl]amino}piperidin-2-one] | 202 nM | 7.8e-07 M | –
O=C1NCCCC[C@@H]1Nc1nc2ccccc2c2nc(-c3cnccn3)nn12 [Example 695, (3S)-3-{[2-(pyrazin-2-yl)[1,2,4]triazolo[1,5-c]quinazolin-5-yl]amino}azepan-2-one] | 2190 nM | 2.96e-06 M | –
Cc1ccc2nc(N[C@@H]3CCCCNC3=O)n3nc(-c4cnn(C)c4)nc3c2c1C(F)F [Example 404, (3R)-3-{[10-(difluoromethyl)-9-methyl-2-(1-methyl-1H-pyrazol-4-yl)[1,2,4]triazolo[1,5-c]quinazolin-5-yl]amino}azepan-2-one] | 2760 nM | 3.39e-06 M | –
C[C@@H](Nc1nc2ccccc2c2nc(-c3cccc(OC(F)(F)F)c3)nn12)C(=O)NCCN(C)C [Example 325, N-[2-(dimethylamino)ethyl]-N^2-{2-[3-(trifluoromethoxy)phenyl][1,2,4]triazolo[1,5-c]quinazolin-5-yl}-D-alaninamide] | 677 nM | 1.49e-05 M and 1.56e-05 M and > 2e-05 M | –
O=C1NCCNC[C@H]1Nc1nc2cccc(C(F)(F)F)c2c2nc(-c3cccc(F)c3)nn12 [Example 288, (6R)-6-{[2-(3-fluorophenyl)-10-(trifluoromethyl)[1,2,4]triazolo[1,5-c]quinazolin-5-yl]amino}-1,4-diazepan-5-one] | – | > 2e-05 M | IC50 (AHR [1]; [4]): 887 nM
CCC[C@@H](Nc1nc2ccccc2c2nc(-c3ccncc3F)nn12)C(=O)NC [Example 486, N^2-[2-(3-fluoropyridin-4-yl)[1,2,4]triazolo[1,5-c]quinazolin-5-yl]-N-methyl-D-norvalinamide] | 184 nM | 3.34e-07 M | –
O=C1NCC[C@H]1Nc1nc2ccccc2c2nc(-c3cc(C(F)(F)F)cc(C(F)(F)F)c3)nn12 [Example 360, (3R)-3-({2-[3,5-bis(trifluoromethyl)phenyl][1,2,4]triazolo[1,5-c]quinazolin-5-yl}amino)pyrrolidin-2-one] | 5440 nM | > 2e-05 M | –
N#Cc1cccc(-c2nc3c4ccccc4nc(N[C@H]4CCCCNC4=O)n3n2)c1 [Example 385, 3-(5-{[(3S)-2-oxoazepan-3-yl]amino}[1,2,4]triazolo[1,5-c]quinazolin-2-yl)benzonitrile] | 146 nM | 1.97e-06 M | –
N#Cc1cccc(-c2nc3c4ccccc4nc(NC4CCCCCNC4=O)n3n2)c1 (centres unmarked) [Example 443, 3-(5-{[2-oxoazocan-3-yl]amino}[1,2,4]triazolo[1,5-c]quinazolin-2-yl)benzonitrile] | 0.672 nM | 1.02e-08 M | –
O=C1NCCNCC1Nc1nc2cccc(C3CC3)c2c2nc(-c3cccc(F)c3)nn12 (single isomer, unassigned) [Example 300, 6-{[10-cyclopropyl-2-(3-fluorophenyl)[1,2,4]triazolo[1,5-c]quinazolin-5-yl]amino}-1,4-diazepan-5-one] | 6180 nM | > 2e-05 M | –
COC(=O)N1CCN(C(=O)[C@@H](C)Nc2nc3c(Br)cccc3c3nc(-c4ccc(OC)cc4)nn23)CC1 [Example 894, methyl 4-{N-[7-bromo-2-(4-methoxyphenyl)[1,2,4]triazolo[1,5-c]quinazolin-5-yl]-D-alanyl}piperazine-1-carboxylate] | – | – | IC50 (AHR [1]; [5]): 1.33 nM; IC50 (AHR [2]; firefly luciferase reporter): 2.01e-09 M
Cc1nn(C)cc1-c1nc2c3ccccc3nc(N[C@@H]3CCCCNC3=O)n2n1 [Example 605, (3R)-3-{[2-(1,3-dimethyl-1H-pyrazol-4-yl)[1,2,4]triazolo[1,5-c]quinazolin-5-yl]amino}azepan-2-one] | 1.05 nM | 1.59e-09 M | –
COc1ccc(-c2nc3c4cccc(OCCC(C)(C)O)c4nc(N[C@@H]4CCCCNC4=O)n3n2)cc1 [Example 1000, (3R)-3-{[7-(3-hydroxy-3-methylbutoxy)-2-(4-methoxyphenyl)[1,2,4]triazolo[1,5-c]quinazolin-5-yl]amino}azepan-2-one] | – | – | IC50 (AHR [1]; [5]): 8.3 nM; IC50 (AHR [2]; firefly luciferase reporter): 9.07e-09 M
COc1ccc(-c2nc3c4cccc(Br)c4nc(N[C@H](C)C(=O)N4CC5(COC5)C4)n3n2)cc1 [Example 916, (2R)-2-{[7-bromo-2-(4-methoxyphenyl)[1,2,4]triazolo[1,5-c]quinazolin-5-yl]amino}-1-(2-oxa-6-azaspiro[3.3]heptan-6-yl)propan-1-one] | – | – | IC50 (AHR [1]; read-out: AHR Antagonism Mouse IC50, Hepa 1c1c7 cells, 200 μM kynurenic acid, 20 hours, firefly luciferase reporter): 2.22 nM; IC50 (AHR [2]; firefly luciferase reporter): 1.06e-09 M
N#Cc1cccc2c1nc(N[C@@H]1CCCCNC1=O)n1nc(-c3cn[nH]c3)nc21 [Example 765, 5-{[(3R)-2-oxoazepan-3-yl]amino}-2-(1H-pyrazol-4-yl)[1,2,4]triazolo[1,5-c]quinazoline-7-carbonitrile] | – | 7.79e-07 M | IC50 (AHR [1]; [4]): 5850 nM
Cn1cc(-c2nc3c4cccc(Br)c4nc(N[C@H]4CS(=N)(=O)CCNC4=O)n3n2)cn1 (single isomer, unassigned) [Example 857] | – | – | IC50 (AHR [1]; [5]): 2140 nM; IC50 (AHR [2]; firefly luciferase reporter): 4.25e-06 M
CCn1cc(-c2nc3c4cccc(Cl)c4nc(N[C@@H]4CCCCNC4=O)n3n2)c(C)n1 [Example 819, (3R)-3-{[7-chloro-2-(1-ethyl-3-methyl-1H-pyrazol-4-yl)[1,2,4]triazolo[1,5-c]quinazolin-5-yl]amino}azepan-2-one] | – | – | IC50 (AHR [1]; [5]): 0.385 nM; IC50 (AHR [2]; firefly luciferase reporter): 2.31e-10 M
C[C@@H](Nc1nc2c(Br)cccc2c2nc(-c3cnn(C)c3)nn12)C(=O)N1C[C@H]2C[C@@H]1CO2 [Example 898, (2R)-2-{[7-bromo-2-(1-methyl-1H-pyrazol-4-yl)[1,2,4]triazolo[1,5-c]quinazolin-5-yl]amino}-1-[(1R,4R)-2-oxa-5-azabicyclo[2.2.1]heptan-5-yl]propan-1-one] | – | – | IC50 (AHR [1]; [5]): 25.2 nM; IC50 (AHR [2]; firefly luciferase reporter): 1.2e-07 M
CC[C@@H](Nc1nc2ccccc2c2nc(-c3cscc3C)nn12)C(N)=O [Example 542] | 0.565 nM | 3.55e-09 M | –
COc1cccc(-c2nc3c4ccccc4nc(NC4CNCCNC4=O)n3n2)c1 (single isomer, unassigned) [Example 116, 6-{[2-(3-methoxyphenyl)[1,2,4]triazolo[1,5-c]quinazolin-5-yl]amino}-1,4-diazepan-5-one] | 73.3 nM | 2.75e-06 M | –
Cn1cc(-c2nc3c4cccc(Br)c4nc(N[C@H]4CCCCNC4=O)n3n2)cn1 [Example 580, (3S)-3-{[7-bromo-2-(1H-methyl-1H-pyrazol-4-yl)[1,2,4]triazolo[1,5-c]quinazolin-5-yl]amino}azepan-2-one] | 61.4 nM | 5.4e-08 M | –
